# From patent US8017350B2, “Glimepiride- and insulin-induced glycosylphosphatidylinositol-specific phospholipase C regulation” (Sanofi-Aventis Deutschland GmbH, priority 2004, dated 2011)
# Tested on: rat adipocyte GPI-PLC
# Assay: adipocyte GPI-PLC assay (plasma membranes or hc/lcDIGs, AChE substrate, TX-114 partitioning)
# Type: biochemical
# Method: GPI-PLD (rat serum) was assayed according to “Hari et al. (1997) Biochim. Biophys. Acta 1355: 293-302” by incubation with 10 μl of human placental aP solution (100 U/ml in 10 mM Hepes/NaOH, pH 7.0, 150 mM NaCl) in 100 μl of 200 mM Tris/maleate (pH 7.0) and 1% Nonidet P-40 for 10 min at 37° C. and subsequent termination of the reaction by addition of 0.4 ml of ice-cold stop buffer (10 mM Hepes/NaOH, pH 7.0, 150 mM NaCl, 0.1 mM MgCl2 and 0.01 mM zinc acetate). GPI-PLC (T. brucei) was assayed as described in “Mensa-Wilmot et al. (1995) Methods Enzymol. 250: 641-655” by incubation with 5 μl of human placental aP solution (see above) in 50 μl of 50 mM Tris/HCl (pH 8.0), 0.25% Nonidet P-40 and 5 mM EDTA for 30 min at 37° C. and subsequent termination of the reaction by addition of 0.45 ml of stop buffer. PI-PLC (B. cereus) and adipocyte GPI-PLC (5-25 μg plasma membranes or hc/lcDIGs) were assayed by incubation with 10 μl of bovine erythrocyte acetylcholinesterase (AChE) solution (12 U/ml in 10 mM Tris/HCl, pH 7.4, 144 mM NaCl, 0.1% TX-100) in 100 μl of 20 mM Hepes/KOH (pH 7.8), 144 mM NaCl, 0.1% TX-100, 0.2 mM MgCl2 for 1 h at 25° C. and subsequent termination by adding 5 μl of glacial acetic acid and then 0.4 ml of 10 mM Tris/HCl (pH 7.4), 144 mM NaCl. Each reaction mixture was subjected to TX-114 partitioning (see below).
# Pelleted hc/lcDIGs (10-50 μg protein) or (G)PI-PLC reaction mixtures (0.5 ml) were separated into amphiphilic and hydrophilic proteins using partitioning between TX-114-enriched and depleted phases according to “Bordier, C., (1981) J. Biol, Chem. […]” by suspending in 1 ml of ice-cold TX-114 (1%), 25 mM Tris/HCl (pH 7.4), 144 mM NaCl or mixing with 0.5 ml of ice-cold TX-114 (2%), respectively. After incubation for 1 h on ice, the mixture was layered onto a cushion of 0.4 ml of 0.25 M sucrose and 25 mM Tris/HCl (pH 7.4) on ice. Phase separation was induced by warming up to 37° C. and subsequent centrifugation (10,000×g, 1 min). After re-extraction of the lower TX-114-enriched phase, aliquots of the pooled upper TX-114-depleted phase were measured for 5′-Nuc, aP and AChE activity or precipitated (15 polyethylene glycol 4000) for SDS-PAGE analysis.
# Table 1: GPI-PLC of hcDIGs from rat adipocytes, GPI-PLC from T. brucei and PI-PLC from B. cereus were incubated with solubilized and partially purified bovine erythrocyte AChE or human placental aP in the absence or presence of increasing concentrations (0.05 μM-1 mM) of the inhibitors indicated under appropriate conditions (see Materials and Methods). Cleavage rate was calculated from the amount of hydrophilic AChE and aP activity recovered with the TX-114-depleted phase upon TX-114 partitioning. […]
compound,measurement,setting,value
"CCCCCCCCCCCCP1(=O)O[C@@H]2[C@H](O)[C@@H](O)[C@H](O)[C@@H](O)[C@@H]2O1 (some centres unmarked) [GPI-2350, myo-inositol-1,2-cyclo-dodecylphosphonic acid]",IC50,"GPI-PLC of hcDIGs from rat adipocytes, inhibitor 0.05 μM-1 mM",200 to 500 nM
same,lipolytic cleavage of AChE after washout,"hcDIGs treated with 50 μM, reisolated, extensively washed, incubated without inhibitor",only low lipolytic cleavage
